The test relates to HT-22 cells. Put plainly: Protection of HT-22 cells from oxidation stress induced by glutamate (MTT viability). The note with it: HT-22 mouse hippocampal line; glutamate 5 mM; viability after 24 h by MTT. In kind it is cell-based. As for the experimental part: Study of the Effects on the Oxidation Stress Induced by Glutamate on Cells in Culture (HT-22).
The inhibitory activity of the products of the invention is determined by measuring their ability to protect the cells of a mouse hippocampal line (HT-22) of an oxidation stress caused by glutamate. The biosynthesis of glutathione, an essential element of cell detoxification of free radicals, requires the active transport of cystine to the interior of the cell. The glutamate by opposing the penetration of cystine causes a reduction in the level of glutathione which leads to the death of the cell due to oxidation stress (Davis, J. B. and Maher, P., Brain Res., (1994) 652: 169-173; Murphy, T. H. et al., Neuron, (1989) 2: 1547-1558). The cells are cultured at 37° C. in a DMEM medium with 10% of foetal calf serum added to it. The tests are carried out in 96-well plates containing 5000 cells per well. The glutamate (5 mM) is added to the medium containing or not containing the products to be tested. The cell viability is tested after 24 h by the MTT method (Hansen, M. B. et al., J Immunol. Methods (1989), 119, 203-210). The ability of the compounds to protect the cells from the toxic action of the glutamate is estimated in EC50, calculated relative to the viability of cells which have not been subjected to the action of glutamate considered as 100% viability.

One may read the EC50 as the concentration giving half of the maximal effect.

Molecules are shown by their SMILES. Counter-ions that a name gives are not always drawn.

With `N=C(Nc1ccc(CCNC(=O)CCCCC2CCSS2)cc1)c1cccs1` (stereo not shown) [Example 2, N-{2-{4[[(2-Thienyl)(imino)methyl]amino]phenyl}ethyl}-1,2-dithiolane-3-pentanamide], the EC50 was under 30 µM.
The same measure for `Cc1cc(N)nc(CCCCNC(=O)CC2CCSS2)c1` (stereo not shown) [Example 5, N-[4-(6-Amino-4-methyl-2-pyridinyl)butyl]-1,2-dithiolane-3-acetamide Fumarate]: under 30 µM; for `N=C(Nc1ccc(CCNC(=O)CC2CCSS2)cc1)c1cccs1` (stereo not shown) [Example 3, N-{2-{4[[(2-Thienyl)(imino)methyl]amino]phenyl}ethyl}-1,2-dithiolane-3-acetamide Hydrochloride]: under 30 µM.
The same measure for `N=C(Nc1ccc(NC(=O)CCCCC2CCSS2)cc1)c1cccs1` (stereo not shown) [Example 1, N-{4-[[(2-Thienyl)(imino)methyl]amino]phenyl}-1,2-dithiolane-3-pentanamide Hydrochloride]: under 30 µM.

The values above are taken from US6605637B1, “Lipoic acid derivatives, their preparation, and pharmaceutical compositions containing them” (Societe de Conseils de Recherches et d'Applications …, priority 1999, dated 2003).
